Assays:
Assay in all cases: KINOMEscan in vitro binding to 468 labeled protein kinases
protein kinases [1] = biological target: T1, protein kinases (Homo sapiens, UniProt P12931); settings: SRC, read-out: Test compound/solvent control (%)
T1 construct: purchased Discovery X company (USA), KINOMEscan screening platform
Outline: (§1)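 Duplicate in vitro binding reactions at 1 nM, 10 nM and 1000 nM compound against a panel of 468 labelled protein kinases (KINOMEscan). Binding expressed relative to solvent control as a percentage, stronger affinity giving a lower value.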

protein kinases [2] = biological target: T2, protein kinases (Homo sapiens, UniProt P00533, L858R/T790M); settings: EGFR(L858R,T790M)
T2 construct: purchased Discovery X company (USA), KINOMEscan screening platform
Outline: as §1

protein kinases [3] = test system: protein kinases
Outline: as §1

protein kinases [4] = biological target: T3, protein kinases (Homo sapiens, UniProt P08631); settings: HCK, read-out: Test compound/solvent control (%)
T3 construct: purchased Discovery X company (USA), KINOMEscan screening platform
Outline: as §1

protein kinases [5] = biological target: T4, protein kinases (Homo sapiens, UniProt Q9UKE5); settings: TNIK, read-out: Test compound/solvent control (%)
T4 construct: purchased Discovery X company (USA), KINOMEscan screening platform
Outline: as §1

protein kinases [6] = biological target: T5, protein kinases (Homo sapiens, UniProt P36888, N841I); settings: FLT3(N841I), read-out: Test compound/solvent control (%)
T5 construct: purchased Discovery X company (USA), KINOMEscan screening platform
T5 sequence (P36888 27-993 N841I): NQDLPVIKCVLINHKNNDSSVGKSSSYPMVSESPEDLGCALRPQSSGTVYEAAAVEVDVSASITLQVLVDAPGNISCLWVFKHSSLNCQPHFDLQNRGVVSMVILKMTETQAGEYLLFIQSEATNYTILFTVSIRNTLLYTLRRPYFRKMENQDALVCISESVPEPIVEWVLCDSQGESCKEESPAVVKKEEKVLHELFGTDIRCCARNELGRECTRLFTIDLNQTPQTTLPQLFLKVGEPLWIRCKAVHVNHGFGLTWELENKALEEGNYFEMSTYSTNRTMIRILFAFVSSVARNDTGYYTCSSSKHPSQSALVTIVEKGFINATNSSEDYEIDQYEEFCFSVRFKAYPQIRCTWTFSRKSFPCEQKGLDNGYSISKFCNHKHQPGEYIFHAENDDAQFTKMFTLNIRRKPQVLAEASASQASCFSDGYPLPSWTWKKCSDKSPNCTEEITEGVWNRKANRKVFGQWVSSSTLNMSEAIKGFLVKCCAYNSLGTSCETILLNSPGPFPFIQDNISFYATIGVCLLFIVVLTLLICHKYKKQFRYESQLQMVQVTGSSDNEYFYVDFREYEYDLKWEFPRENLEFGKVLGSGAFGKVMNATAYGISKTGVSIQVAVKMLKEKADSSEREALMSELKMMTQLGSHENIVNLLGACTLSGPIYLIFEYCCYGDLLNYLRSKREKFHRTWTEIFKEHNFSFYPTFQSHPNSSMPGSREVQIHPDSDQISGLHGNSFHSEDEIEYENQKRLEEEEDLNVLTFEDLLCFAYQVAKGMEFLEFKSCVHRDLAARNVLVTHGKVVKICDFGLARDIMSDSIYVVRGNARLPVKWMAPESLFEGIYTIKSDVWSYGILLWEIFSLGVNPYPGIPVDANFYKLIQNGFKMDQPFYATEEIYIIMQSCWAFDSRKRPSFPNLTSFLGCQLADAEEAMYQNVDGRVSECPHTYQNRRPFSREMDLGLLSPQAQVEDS
Outline: as §1

T4 sequence (Q9UKE5 whole entry): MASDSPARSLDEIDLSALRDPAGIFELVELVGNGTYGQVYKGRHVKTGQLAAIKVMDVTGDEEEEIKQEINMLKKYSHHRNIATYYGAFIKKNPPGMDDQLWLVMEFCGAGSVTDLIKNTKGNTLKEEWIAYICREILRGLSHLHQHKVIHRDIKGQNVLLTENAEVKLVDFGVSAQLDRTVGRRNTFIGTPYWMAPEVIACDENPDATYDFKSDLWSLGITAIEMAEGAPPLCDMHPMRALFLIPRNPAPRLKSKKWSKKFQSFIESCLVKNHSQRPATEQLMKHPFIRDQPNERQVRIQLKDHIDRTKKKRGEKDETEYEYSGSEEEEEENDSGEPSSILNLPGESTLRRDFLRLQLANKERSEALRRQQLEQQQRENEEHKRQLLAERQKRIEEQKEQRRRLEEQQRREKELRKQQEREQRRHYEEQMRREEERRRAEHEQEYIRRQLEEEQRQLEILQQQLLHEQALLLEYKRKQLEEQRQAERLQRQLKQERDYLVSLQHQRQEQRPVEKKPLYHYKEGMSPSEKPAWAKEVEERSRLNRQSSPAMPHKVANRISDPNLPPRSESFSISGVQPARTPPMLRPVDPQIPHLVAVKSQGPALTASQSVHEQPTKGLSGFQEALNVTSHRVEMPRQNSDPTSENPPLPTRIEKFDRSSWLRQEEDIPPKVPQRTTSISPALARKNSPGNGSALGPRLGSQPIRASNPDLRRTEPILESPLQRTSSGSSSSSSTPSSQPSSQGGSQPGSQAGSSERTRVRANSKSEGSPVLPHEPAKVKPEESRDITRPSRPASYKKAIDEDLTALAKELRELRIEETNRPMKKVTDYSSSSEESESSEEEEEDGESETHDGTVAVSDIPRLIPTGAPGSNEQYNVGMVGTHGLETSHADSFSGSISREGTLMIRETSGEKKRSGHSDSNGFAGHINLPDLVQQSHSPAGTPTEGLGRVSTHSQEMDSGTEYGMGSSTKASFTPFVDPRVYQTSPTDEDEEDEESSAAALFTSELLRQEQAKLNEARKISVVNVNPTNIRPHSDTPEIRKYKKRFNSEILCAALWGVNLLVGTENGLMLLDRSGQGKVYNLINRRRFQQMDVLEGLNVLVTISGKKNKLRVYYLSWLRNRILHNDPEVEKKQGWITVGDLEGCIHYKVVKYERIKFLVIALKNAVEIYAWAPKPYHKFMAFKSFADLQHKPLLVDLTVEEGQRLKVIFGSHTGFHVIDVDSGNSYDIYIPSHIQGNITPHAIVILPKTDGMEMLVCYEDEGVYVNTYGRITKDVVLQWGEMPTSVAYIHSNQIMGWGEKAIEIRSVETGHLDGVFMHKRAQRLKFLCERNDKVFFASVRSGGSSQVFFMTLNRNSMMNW
T2 sequence (P00533 25-1210 T790M/L858R): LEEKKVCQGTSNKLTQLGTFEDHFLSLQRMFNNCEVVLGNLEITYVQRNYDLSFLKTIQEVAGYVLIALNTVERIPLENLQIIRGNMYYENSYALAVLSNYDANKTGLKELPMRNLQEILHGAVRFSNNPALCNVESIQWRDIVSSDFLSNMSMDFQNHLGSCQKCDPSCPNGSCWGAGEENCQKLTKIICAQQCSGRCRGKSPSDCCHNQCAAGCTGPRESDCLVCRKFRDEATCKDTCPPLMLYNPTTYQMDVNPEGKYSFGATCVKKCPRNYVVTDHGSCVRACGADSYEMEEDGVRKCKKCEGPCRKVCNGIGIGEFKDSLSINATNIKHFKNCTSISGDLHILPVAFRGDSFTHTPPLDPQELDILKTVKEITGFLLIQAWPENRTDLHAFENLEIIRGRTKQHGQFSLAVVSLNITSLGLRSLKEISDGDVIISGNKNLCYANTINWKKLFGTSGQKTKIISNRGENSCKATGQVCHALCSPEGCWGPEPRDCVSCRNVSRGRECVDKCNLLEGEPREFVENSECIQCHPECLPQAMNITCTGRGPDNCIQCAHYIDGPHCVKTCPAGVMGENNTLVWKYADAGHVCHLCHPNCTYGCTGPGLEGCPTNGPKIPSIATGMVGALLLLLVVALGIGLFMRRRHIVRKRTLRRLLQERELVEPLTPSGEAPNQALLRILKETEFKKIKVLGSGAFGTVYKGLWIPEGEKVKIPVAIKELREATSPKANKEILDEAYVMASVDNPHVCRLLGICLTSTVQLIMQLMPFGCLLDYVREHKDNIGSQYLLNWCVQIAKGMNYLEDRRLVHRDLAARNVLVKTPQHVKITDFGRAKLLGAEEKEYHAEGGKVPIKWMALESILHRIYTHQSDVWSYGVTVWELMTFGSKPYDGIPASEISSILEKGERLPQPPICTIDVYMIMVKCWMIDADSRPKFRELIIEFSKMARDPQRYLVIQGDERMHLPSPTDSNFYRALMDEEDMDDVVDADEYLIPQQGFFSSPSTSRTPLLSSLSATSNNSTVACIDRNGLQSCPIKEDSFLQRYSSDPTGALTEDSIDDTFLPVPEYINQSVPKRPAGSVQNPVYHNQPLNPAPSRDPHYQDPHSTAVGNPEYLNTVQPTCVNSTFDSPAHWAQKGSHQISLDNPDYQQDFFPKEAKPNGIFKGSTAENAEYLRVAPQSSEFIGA
T3 sequence (P08631 whole entry): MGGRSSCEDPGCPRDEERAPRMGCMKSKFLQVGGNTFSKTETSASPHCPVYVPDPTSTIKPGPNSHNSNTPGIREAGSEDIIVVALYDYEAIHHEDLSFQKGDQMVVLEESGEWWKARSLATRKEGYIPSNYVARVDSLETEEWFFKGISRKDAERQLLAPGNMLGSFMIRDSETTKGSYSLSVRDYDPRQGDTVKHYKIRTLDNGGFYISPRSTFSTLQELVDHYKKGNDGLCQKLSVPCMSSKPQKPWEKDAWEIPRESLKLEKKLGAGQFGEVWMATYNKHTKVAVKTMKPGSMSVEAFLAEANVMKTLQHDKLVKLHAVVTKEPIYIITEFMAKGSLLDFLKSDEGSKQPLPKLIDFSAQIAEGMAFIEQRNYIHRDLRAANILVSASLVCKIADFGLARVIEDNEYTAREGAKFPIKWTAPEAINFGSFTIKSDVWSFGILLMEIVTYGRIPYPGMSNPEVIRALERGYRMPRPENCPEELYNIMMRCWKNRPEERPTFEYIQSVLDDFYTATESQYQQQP
T1 sequence (P12931 whole entry): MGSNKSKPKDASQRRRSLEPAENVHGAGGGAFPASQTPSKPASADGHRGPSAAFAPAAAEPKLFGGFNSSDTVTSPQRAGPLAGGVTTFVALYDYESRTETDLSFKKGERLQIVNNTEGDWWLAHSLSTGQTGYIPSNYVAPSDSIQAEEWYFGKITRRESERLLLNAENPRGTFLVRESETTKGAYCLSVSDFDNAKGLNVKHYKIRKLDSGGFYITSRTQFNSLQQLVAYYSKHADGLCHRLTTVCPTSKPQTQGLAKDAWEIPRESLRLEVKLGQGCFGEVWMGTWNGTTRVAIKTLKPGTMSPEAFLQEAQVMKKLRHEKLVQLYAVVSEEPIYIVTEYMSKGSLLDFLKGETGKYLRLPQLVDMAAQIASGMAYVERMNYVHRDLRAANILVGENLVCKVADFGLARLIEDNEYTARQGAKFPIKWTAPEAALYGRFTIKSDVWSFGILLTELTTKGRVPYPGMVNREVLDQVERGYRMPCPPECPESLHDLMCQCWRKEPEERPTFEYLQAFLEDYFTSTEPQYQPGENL

- remaining binding at 0.001 µM (protein kinases [1]; 1 nM): 36%
- remaining binding at 0.01 µM (protein kinases [1]; 10 nM): 1.4%
- remaining binding at 1 µM (protein kinases [1]; 1000 nM): 0.1%
- Test compound/solvent control (%) (protein kinases [2]; 1 nM): 64%
- Test compound/solvent control (%) (protein kinases [2]; 10 nM): 21%
- Test compound/solvent control (%) (protein kinases [2]; 1000 nM): 0.7%
- Test compound/solvent control (%) (protein kinases [3]; EGFR(L747-E749del, A750P), 1 nM): 92%
- Test compound/solvent control (%) (protein kinases [3]; EGFR(L747-E749del, A750P), 10 nM): 11%
- Test compound/solvent control (%) (protein kinases [3]; EGFR(L747-E749del, A750P), 1000 nM): 0%
- Test compound/solvent control (%) (protein kinases [3]; EGFR(L747-S752del, P753S), 1 nM): 67%
- Test compound/solvent control (%) (protein kinases [3]; EGFR(L747-S752del, P753S), 10 nM): 16%
- Test compound/solvent control (%) (protein kinases [3]; EGFR(L747-S752del, P753S), 1000 nM): 1.6%
- Test compound/solvent control (%) (protein kinases [3]; EGFR(L747-T751del, Sins), 1 nM): 68%
- Test compound/solvent control (%) (protein kinases [3]; EGFR(L747-T751del, Sins), 10 nM): 11%
- Test compound/solvent control (%) (protein kinases [3]; EGFR(L747-T751del, Sins), 1000 nM): 2.7%
- remaining binding at 0.001 µM (protein kinases [4]; 1 nM): 60%
- remaining binding at 0.01 µM (protein kinases [4]; 10 nM): 1.7%
- remaining binding at 1 µM (protein kinases [4]; 1000 nM): 0%
- remaining binding at 0.001 µM (protein kinases [5]; 1 nM): 44%
- remaining binding at 0.01 µM (protein kinases [5]; 10 nM): 6.4%
- remaining binding at 1 µM (protein kinases [5]; 1000 nM): 7%
- remaining binding at 0.001 µM (protein kinases [6]; 1 nM): 88%
- remaining binding at 0.01 µM (protein kinases [6]; 10 nM): 17%
- remaining binding at 1 µM (protein kinases [6]; 1000 nM): 0.25%
SMILES: COCCOc1cc2nccc(Oc3ccc(NC(=O)Nc4cc(C(C)(C)C)n[nH]4)c(Cl)c3)c2cc1NC(C)=O [Compound 66, N-[4-{4-[3-(5-tert-butyl-2H-pyrazol-3-yl)-ureido]-3-chloro-phenoxy}-7-(2-methoxy-ethoxy)-quinolin-6-yl]-acetamide]

From US10800741B2 (ANCUREALL PHARMACEUTICAL (SHANGHAI) CO., LTD., priority 2017, dated 2020)
